Test results: patent publication US12234230B2, “Substituted benzyl-triazole compounds for Cbl-b inhibition, and further uses thereof” (Nurix Therapeutics, Inc., priority 2019, dated 2025)
Where two headings read alike, the source gives them in different places.

What was measured:
[1] = system: primary human total T-cells; assay: Primary human total T-cell activation (IL-2 secretion, CD25 surface staining), Biological Example 9; conditions: fold change over baseline, Table 9-1
Protocol: Peripheral blood mononuclear cells (PBMC) were obtained either: 1) by using Ficoll-Paque™ (GE Healthcare) for separation of peripheral blood hematopoietic cells from buffy coats of healthy human donors; or 2) directly from LeukoPak donations. […] The cells were rested overnight at 37° C. 5% CO2. The Cbl-inhibitor was added to 1×10^5 cells per well and the plate was incubated for one hour at 37° C. in 5% CO2 at the concentrations indicated (Table 9-1) with a final DMSO concentration of <0.1%. For samples stimulated with anti-CD3 antibody and anti-CD28 antibody (anti-CD3/anti-CD28), the Cbl-b inhibitor concentrations tested were 1 μM, and 0.3 μM. For samples stimulated with anti-CD3 antibody alone (anti-CD3), the Cbl-b inhibitor concentrations tested were 3 μM, and 1 μM. […] To prepare plates with plate bound anti-CD3 antibody (OKT3), 96-well round bottom tissue culture plates were coated with 100 μL of anti-CD3 antibody (OKT3) at 10 μg/mL for 4 hours at 37° C. 5% CO2 in phosphate buffered saline (PBS). […] Cells were stimulated for 48 hours prior to harvesting the cell free supernatant and staining the cell population for surface marker assessment by flow cytometry. Supernatants were analyzed for cytokine secretion, including IL-2 by ELISA (R&D Systems, Peprotech or Life Technologies) or Luminex multiplex kits (Procarta Life Technologies) following the manufacturer's protocol. Cells were stained with anti-CD25 antibody (BD Biosciences) to assess levels of surface marker of activation.
Readouts were reported as fold change over baseline. Baseline for this study was the measurement obtained from total human T-cells stimulated with anti-CD3 antibody and with soluble anti-CD28 antibody, wherein the cells were not incubated with a Cbl-b inhibitor (Table 9-1). […] For T-cells stimulated with anti-CD3 alone, changes greater than 0.1-fold over baseline for IL-2 secretion and greater than 0.6-fold over baseline for CD25 surface staining were considered significant and a positive response.

Cbl-b = Cbl-b (Homo sapiens (Human), UniProt Q13191); assay: Cbl-b displacement assay (Cbl-b inhibition assay), Biological Example 1; type: binding
Sequence of Cbl-b (Q13191 36-427): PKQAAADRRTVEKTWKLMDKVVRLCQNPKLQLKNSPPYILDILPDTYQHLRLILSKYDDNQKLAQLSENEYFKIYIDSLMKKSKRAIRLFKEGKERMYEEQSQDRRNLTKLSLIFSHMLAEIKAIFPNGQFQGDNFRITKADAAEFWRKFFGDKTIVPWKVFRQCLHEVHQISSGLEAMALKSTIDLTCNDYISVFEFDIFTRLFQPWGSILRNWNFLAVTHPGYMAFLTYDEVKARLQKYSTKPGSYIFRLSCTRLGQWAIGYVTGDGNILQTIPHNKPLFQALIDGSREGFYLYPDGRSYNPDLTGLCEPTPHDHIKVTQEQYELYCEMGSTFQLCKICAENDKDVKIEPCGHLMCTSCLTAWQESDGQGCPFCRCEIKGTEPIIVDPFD
Protocol: The ability of candidate compounds to displace a known inhibitor and thereby inhibit Cbl-b activity was measured by monitoring the interaction of Cbl-b with a fluorophore-labeled probe in the presence of the candidate compound.
Following the one hour incubation, the plates were read for TR-FRET signal at 520/620 nm using an Envision plate reader (Perkin Elmer).

[2] = system: primary human total T-cells; assay: Primary human total T-cell activation (IL-2 secretion, CD25 surface staining), Biological Example 12; conditions: fold change over baseline, Table 12-1
Protocol: Peripheral blood mononuclear cells (PBMC) were obtained either: 1) by using Ficoll-Paque™ (GE Healthcare) for separation of peripheral blood hematopoietic cells from buffy coats of healthy human donors; or 2) directly from LeukoPak donations. […] The cells were rested overnight at 37° C. 5% CO2. The Cbl-inhibitor was added to 1×10^5 cells per well and the plate was incubated for one hour at 37° C. in 5% CO2 at the concentrations indicated (Table 12-1) with a final DMSO concentration of <0.1%. For samples stimulated with anti-CD3 antibody and anti-CD28 antibody (anti-CD3/anti-CD28), the Cbl-b inhibitor concentrations tested were 1 μM, and 0.3 μM. For samples stimulated with anti-CD3 antibody alone (anti-CD3), the Cbl-b inhibitor concentrations tested were 3 μM, and 1 μM. […] To prepare plates with plate bound anti-CD3 antibody (OKT3), 96-well round bottom tissue culture plates were coated with 100 μL of anti-CD3 antibody (OKT3) at 10 μg/mL for 4 hours at 37° C. 5% CO2 in phosphate buffered saline (PBS). […] Cells were stimulated for 48 hours prior to harvesting the cell free supernatant and staining the cell population for surface marker assessment by flow cytometry. Supernatants were analyzed for cytokine secretion, including IL-2 by ELISA (R&D Systems, Peprotech or Life Technologies) or Luminex multiplex kits (Procarta Life Technologies) following the manufacturer's protocol. Cells were stained with anti-CD25 antibody (BD Biosciences) to assess levels of surface marker of activation.
Readouts were reported as fold change over baseline. Baseline for this study was the measurement obtained from total human T-cells stimulated with anti-CD3 antibody and with soluble anti-CD28 antibody, wherein the cells were not incubated with a Cbl-b inhibitor (Table 12-1). […] For T-cells stimulated with anti-CD3 alone, changes greater than 0.1-fold over baseline for IL-2 secretion and greater than 0.6-fold over baseline for CD25 surface staining were considered significant and a positive response.

[3] = system: primary human total T-cells; assay: Primary human total T-cell activation (IL-2 secretion, CD25 surface staining), Biological Example 2; conditions: fold change over baseline; for CD25 staining CD3/CD28 0.3 μM / IL-2 secretion CD3/CD28 0.3 μM: 0.3 μM inhibitor; for CD25 staining CD3 1 μM / IL-2 secretion CD3 1 μM / CD25 staining CD3 3 μM / IL-2 secretion CD3 3 μM: anti-CD3 stimulation alone; for CD25 staining CD3 3 μM / IL-2 secretion CD3 3 μM: 3 μM inhibitor
[4] = 0.3 μM inhibitor, anti-CD3 and anti-CD28 co-stimulation
[5] = 1 μM inhibitor, anti-CD3 and anti-CD28 co-stimulation
[6] = 1 μM inhibitor, anti-CD3 stimulation alone
[7] = 3 μM inhibitor, anti-CD3 stimulation alone
[8] = 0.125 nM Cbl-b final concentration (Low), read-out: Cbl-b activity IC50 (Low)
[9] = anti-CD3 and anti-CD28 co-stimulation

Compound | IL-2 secretion CD3/CD28 0.3 μM [1, 4] | IL-2 secretion CD3/CD28 1 μM [1, 5] | IL-2 secretion CD3 1 μM [1, 6] | CD25 staining CD3 3 μM [1, 7] | IL-2 secretion CD3 3 μM [1, 7] | IC50 (Cbl-b; [8]) [nM] | IL-2 secretion CD3/CD28 0.3 μM [2, 4] | IL-2 secretion CD3/CD28 1 μM [2, 5] | IL-2 secretion CD3 1 μM [2, 6] | CD25 staining CD3 3 μM [2, 7] | IL-2 secretion CD3 3 μM [2, 7] | CD25 staining CD3/CD28 0.3 μM [3, 9] | IL-2 secretion CD3/CD28 0.3 μM [3, 9] | CD25 staining CD3/CD28 1 μM [3, 5] | IL-2 secretion CD3/CD28 1 μM [3, 5] | CD25 staining CD3 1 μM ([3]; 1 μM inhibitor) | IL-2 secretion CD3 1 μM ([3]; 1 μM inhibitor) | CD25 staining CD3 3 μM [3] | IL-2 secretion CD3 3 μM [3] | IC50 (Cbl-b; 0.5 nM Cbl-b final concentration (High), read-out: Cbl-b activity IC50 (High)) [nM]
C[C@@H]1CN(Cc2cc3c(c(C(F)(F)F)c2)CN(c2cccc([C@H](c4nncn4C)C4CCC4)c2)C3=O)CCO1 [Compound 17, 2-(3-((R)-cyclobutyl(4-methyl-4H-1,2,4-triazol-3-yl)methyl)phenyl)-6-(((R)-2-methylmorpholino)methyl)-4-(trifluoromethyl)isoindolin-1-one] | B (B indicates 10-15 fold) | A (A indicates >15 fold) | A (A indicates >0.66 fold) | B (B indicates 1.05-1.14 fold) | A (A indicates >0.66 fold) | < 5 | B (B indicates 11-15 fold) | A (A indicates >15 fold) | A (A indicates >0.66 fold) | B (B indicates 1.05-1.14 fold) | A (A indicates >0.66 fold) | B (B indicates 1.24-1.39 fold) | B (B indicates 20-35 fold) | B (B indicates 1.24-1.39 fold) | A (A indicates >35 fold) | B (B indicates 1.5-2.5 fold) | A (A indicates >1.1 fold) | B (B indicates 1.5-2.5 fold) | A (A indicates >1.1 fold) | 
C[C@@H]1CN(Cc2cc3c(c(C(F)(F)F)c2)CN(c2cccc([C@]4(c5nncn5C)C[C@@H](O)C4)c2)C3=O)CCC1(F)F [Compound 31, 6-(((R)-4,4-difluoro-3-methylpiperidin-1-yl)methyl)-2-(3-((1s,3S)-3-hydroxy-1-(4-methyl-4H-1,2,4-triazol-3-yl)cyclobutyl)phenyl)-4-(trifluoromethyl)isoindolin-1-one] |  |  |  |  |  | 5 to 20 |  |  |  |  |  |  | C (C indicates <20 fold) |  | C (C indicates <20 fold) | C (C indicates <1.5 fold) | C (C indicates <0.70 fold) | B (B indicates 1.5-2.5 fold) | C (C indicates <0.70 fold) | 
CO[C@H]1C[C@@](c2cccc(N3Cc4c(cc(CN5CCC(F)(F)[C@H](C)C5)cc4C(F)(F)F)C3=O)c2)(c2nncn2C)C1 [Compound 33, 6-(((R)-4,4-difluoro-3-methylpiperidin-1-yl)methyl)-2-(3-((1s,3S)-3-methoxy-1-(4-methyl-4H-1,2,4-triazol-3-yl)cyclobutyl)phenyl)-4-(trifluoromethyl)isoindolin-1-one] |  |  |  |  |  | 5 to 20 |  |  |  |  |  | B (B indicates 1.24-1.39 fold) | C (C indicates <20 fold) |  | B (B indicates 20-35 fold) | A (A indicates >2.5 fold) | A (A indicates >1.1 fold) | A (A indicates >2.5 fold) | A (A indicates >1.1 fold) | 
Cc1cc(C(=O)Nc2cccc([C@H](c3nncn3C)C3CCC3)c2)nc(C2CC2)n1 [Compound 13, (R)—N-(3-(cyclobutyl(4-methyl-4H-1,2,4-triazol-3-yl)methyl)phenyl)-2-cyclopropyl-6-methylpyrimidine-4-carboxamide] |  |  |  |  |  |  |  |  |  |  |  |  | C (C indicates <20 fold) |  | C (C indicates <20 fold) | C (C indicates <1.5 fold) |  | C (C indicates <1.5 fold) |  | > 100
CO[C@H]1C[C@](c2cccc(N3Cc4c(cc(CN5CCC(F)(F)[C@H](C)C5)cc4C(F)(F)F)C3=O)c2)(c2nncn2C)C1 [Compound 36, 6-(((R)-4,4-difluoro-3-methylpiperidin-1-yl)methyl)-2-(3-(trans-3-methoxy-1-(4-methyl-4H-1,2,4-triazol-3-yl)cyclobutyl)phenyl)-4-(trifluoromethyl)isoindolin-1-one] |  |  |  |  |  | < 5 |  |  |  |  |  |  | C (C indicates <20 fold) |  | C (C indicates <20 fold) | C (C indicates <1.5 fold) | C (C indicates <0.70 fold) | C (C indicates <1.5 fold) | C (C indicates <0.70 fold) | 
C[C@@H]1CN(Cc2cc3c(c(C(F)(F)F)c2)CN(c2cccc([C@]4(c5nncn5C)C[C@@H](C)C4)c2)C3=O)CCC1(F)F [Compound 19, 6-(((R)-4,4-difluoro-3-methylpiperidin-1-yl)methyl)-2-(3-((1s,3S)-3-methyl-1-(4-methyl-4H-1,2,4-triazol-3-yl)cyclobutyl)phenyl)-4-(trifluoromethyl)isoindolin-1-one] |  |  |  |  |  | 20 to 100 |  |  |  |  |  |  | C (C indicates <20 fold) |  | C (C indicates <20 fold) | C (C indicates <1.5 fold) | C (C indicates <0.70 fold) | C (C indicates <1.5 fold) | C (C indicates <0.70 fold) | 
